IC50 data for 2 compounds are collected here from patent US4835189A, “Phenolic thioalkylamides as inhibitors of 5-lipoxygenase” (G. D. Searle & Co., priority 1987, dated 1989).

The target in the experiment is T1, 5-lipoxygenase (Rattus norvegicus, UniProt P12527).
T1 construct: The 100,000 x g supernatant fraction of Rat Basophilic Leukemia Cell Homogenate (RBL-1) serves as a 5-lipoxygenase enzyme source; endogenous in cells; host or cells: RBL-1 (rat basophilic leukemia) cells, 100,000 x g supernatant of homogenate
T1 sequence (P12527 1-673): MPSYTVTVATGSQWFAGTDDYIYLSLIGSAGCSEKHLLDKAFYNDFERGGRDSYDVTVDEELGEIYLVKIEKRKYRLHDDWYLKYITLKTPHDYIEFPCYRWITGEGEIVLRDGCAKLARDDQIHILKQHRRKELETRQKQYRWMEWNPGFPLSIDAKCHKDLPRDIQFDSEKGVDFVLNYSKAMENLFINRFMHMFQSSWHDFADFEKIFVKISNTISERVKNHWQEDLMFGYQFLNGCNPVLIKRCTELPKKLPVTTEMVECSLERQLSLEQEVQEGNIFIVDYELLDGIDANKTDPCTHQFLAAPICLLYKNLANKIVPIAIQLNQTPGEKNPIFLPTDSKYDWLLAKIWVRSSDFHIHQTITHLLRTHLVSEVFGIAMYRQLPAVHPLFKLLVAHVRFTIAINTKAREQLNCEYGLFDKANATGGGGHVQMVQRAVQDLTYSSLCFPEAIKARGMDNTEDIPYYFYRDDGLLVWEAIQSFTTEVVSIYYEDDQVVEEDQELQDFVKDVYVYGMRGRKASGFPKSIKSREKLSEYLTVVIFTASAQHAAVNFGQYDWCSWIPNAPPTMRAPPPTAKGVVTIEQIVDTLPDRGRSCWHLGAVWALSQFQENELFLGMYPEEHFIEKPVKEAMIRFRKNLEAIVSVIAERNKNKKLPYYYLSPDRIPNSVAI
Nature of the experiment: Inhibition of 5-lipoxygenase, in vitro (5-HETE synthesis, RBL-1 homogenate 100,000 x g supernatant). The format is biochemical. To be noted: RBL-1 100,000 x g supernatant, [1-14C]-arachidonic acid and Ca++. The method, then: The compounds of the invention are evaluated with respect to 5-lipoxygenaseinhibition according to the following assay procedure.
Inhibition of 5-lipoxygenase, in vitro: anti-inflammatory, anti-allergy activities.
The 100,000 x g supernatant fraction of Rat Basophilic Leukemia Cell Homogenate (RBL-1) serves as a 5-lipoxygenase enzyme source. The enzyme is incubated with [1-^14 C)-arachidonic acid and Ca++ in the presence and absence of test compound. The product of 5-lipoxygenase, 5-hydroxyeicosatetraenoic acid (5-HETE), is separated by thin-layer chromatography and measured by radioactivity. A compound inhibiting 5-HETE synthesis by 30% or more is considered active at that concentration.

What is called IC50 is the concentration needed to halve the response being measured. `CC(C)N(Cc1ccccc1)C(=O)CCSc1cc(C(C)(C)C)c(O)c(C(C)(C)C)c1` [Example 4, 3-[[3,5-bis(1,1-dimethylethyl)-4-hydroxylphenyl]thio]-N-(1-methylethyl)-N-(phenylmethyl)propanamide] yielded an IC50 of 0.56 µM.
The result for `CC(C)N(C(=O)CCSc1cc(C(C)(C)C)c(O)c(C(C)(C)C)c1)C(C)C` [Example 5, 3-[[3,5-bis(1,1-dimethylethyl)-4-hydroxyphenyl]thio]-N,N-bis(1-methylethyl)propanamide] reads 1.4 µM.
